Data published in US9029405B2, “5-(biphenyl-4-yl)-3-phenyl-1,2,4-oxadiazolyl derivatives as ligands on the sphingosine 1-phosphate(SIP)receptors” (Merck Serono S.A., priority 2010, dated 2015).
Counter-ions that a name gives are not always drawn. Like-named read-outs stand apart in the source and are kept apart here.

Legend:
S1P1 [1] = molecular target: T1, S1P1 (Homo sapiens, UniProt P21453); experiment: Receptor binding assay, [33P]sphingosine 1-phosphate competition, membranes of CHO cells expressing S1P1
Method: (§1) Membranes were prepared from CHO cells expressing S1P1 or S1P3 for use in ligand binding studies. Cells were suspended in 50 mM TRIS, pH 7.4, 2 mM EDTA, 250 mM Sucrose (buffer A) and 1× Complete protease inhibitor cocktail (Roche), and disrupted at 4° C. by N2 decompression using a cell disruption bomb (Parr Instrument). Following centrifugation at 1000 RPM for 10 min at 4° C., the supernatant was diluted (2×) in buffer A and centrifuged again at 19000 RPM for 75 min at 4° C. The pellet was then suspended in 10 mM HEPES, pH 7.4, 1 mM EDTA, 250 mM Sucrose (Buffer B), and 1× Complete EDTA-free protease inhibitor cocktail and homogenized using a potter. Membranes were flash frozen in liquid N2 and stored at −80° C.
(§2) [33P]sphingosine 1-phosphate (3000 Ci/mmol; American Radiolabeled Chemicals, Inc.) was added to test compounds in 20% DMSO by competition. Membranes and WGA SPA beads (GE Healthcare) were added to give a final volume of 100 μl in 96-well plates or 50 μl in 384-well plates with assay concentrations of 30 pM or 15 pM [33P]sphingosine 1-phosphate (respectively for S1P1 or S1P3), 50 mM HEPES, pH 7.5, 5 mM MgCl2, 100 mM NaCl, 0.4% fatty acid-free BSA, 1-5 μg/well of proteins in 96-well plates vs 0.6-1 μg/well of proteins in 384-well plates and 100 μg/well of WGA SPA beads in 96-well plates vs 75 μg/well of WGA SPA beads in 384-well plates. Binding was performed for 60 min at RT on a shaker and bound radioactivity was measured on a PerkinElmer 1450 MicroBeta counter. Triplicate samples were averaged and normalized as percentage of inhibition relative to total binding (only DMSO in well) and non specific binding (1000-fold excess of unlabeled S1P). Binding data were analyzed using the GraphPad Prism program or Genedata software.
(§3) The “potency” or the “activity” of the compounds is determined by the Ki values as evaluated in one of the above described binding assay, 96 or 384 well plates.
Target sequence in this assay (P21453 whole entry, species assumed): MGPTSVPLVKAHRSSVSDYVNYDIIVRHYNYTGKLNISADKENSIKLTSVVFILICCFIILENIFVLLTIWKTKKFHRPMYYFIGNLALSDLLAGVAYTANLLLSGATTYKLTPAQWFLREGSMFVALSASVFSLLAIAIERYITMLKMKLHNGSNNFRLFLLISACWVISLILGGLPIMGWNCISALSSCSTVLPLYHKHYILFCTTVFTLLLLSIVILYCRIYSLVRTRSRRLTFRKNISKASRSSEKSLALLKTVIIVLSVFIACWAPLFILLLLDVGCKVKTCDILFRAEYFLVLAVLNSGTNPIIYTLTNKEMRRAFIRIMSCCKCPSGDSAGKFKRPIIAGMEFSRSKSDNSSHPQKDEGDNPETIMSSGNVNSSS

S1P1 [2] = molecular target: T1, S1P1; experiment: S1P1 internalization assay in S1P1-U2OS cells (cell imaging); type: cell-based; set-up: host or cells: U2OS (human bone osteosarcoma epithelial cells); details: U2OS cells expressing S1P1-EGFP, 384-well format
Method: Cellular Functional Assays: Internalization of Sphinqosine-1-phosphate Receptor 1 (S1P1) in a Human Cell Line (U2OS) in a 384-Well Format Using a Cell Imaging Analysis.
The S1P1 internalization assay was performed in 384 well plates (Corning 384 black with clear bottom 3712) using S1P1-U2OS cells from BioImage (C039A), a human epithelial cell line (Human Bone Osteosarcoma Epithelial Cells). These cells expressed the human S1P1 Receptor fused to the green fluorescent protein (EGFP). A standard CMV promoter (cytomegalovirus promoter) controls the expression of S1P1-EGFP and continuous expression was maintained by addition of geneticin to the culture medium.
S1P1 Receptor desensitization induced the internalization of the membrane-localized S1P-EGFP fusion protein to endosomes, which can be monitored by cell imaging analysis.
The cells are plated in low serum medium (Dulbecco's Modified Eagle Medium (DMEM) with Glutamax-1 and high glucose, 1% Penicillin/Streptomycin, 1% Fetal Calf Serum (FCS), 0.5 mg/ml Geneticin) overnight.
The next day, S1P1-U2OS cells are incubated in 20 μl serum free medium (DMEM with Glutamax-1 and high glucose, 0.1% of fatty-acid free Bovin Serum Albumin (BSA), 10 mM, N′-2-Hydroxyethylpiperazine-N′-2 ethanesulphonic acid (HEPES) 1M) for 2 hours at 37° C./5% CO2. The cells are then treated with 4 μl compounds/agonists (6×/3% DMSO) for a total volume of 24 μl, and plates are incubated for 1 hour at 37° C./5% CO2.
S1P1-U2OS cells are fixed with 25 μl Paraformaldehyde 8% and stained with Hoechst 33345 dye (1:1000) for 20 minutes.
They were then washed 3 times with Phosphate Buffered Saline (PBS) and plates are sealed. The internalization of the receptor S1P1-EGFP is measured on Cellomics by calculating the “spot count per object” (“object” corresponds to nuclear and “spot” corresponds to S1P1-EGFP receptor). Internalization data were observed thanks to vHCS View and analyzed using Genedata® software.
Target sequence in this assay (P21453 whole entry): as the sequence (P21453 whole entry, species assumed) above

S1P3 = S1P3 (Homo sapiens, UniProt Q99500); experiment: Receptor binding assay, [33P]sphingosine 1-phosphate competition, membranes of CHO cells expressing S1P3
Method: as §1, §2, §3

[3] = 384 well plate, read-out: S1P1 Binding Ki [M] (384 well plate)
[4] = 384 well plate, read-out: S1P3 Binding Ki [M] (384 well plate)
[5] = 96 well plate, read-out: S1P1 Binding Ki [M] (96 well plate)
[6] = 96 well plate, read-out: S1P3 Binding Ki [M] (96 well plate)

S1P3, sequence (Q99500 whole entry, species assumed): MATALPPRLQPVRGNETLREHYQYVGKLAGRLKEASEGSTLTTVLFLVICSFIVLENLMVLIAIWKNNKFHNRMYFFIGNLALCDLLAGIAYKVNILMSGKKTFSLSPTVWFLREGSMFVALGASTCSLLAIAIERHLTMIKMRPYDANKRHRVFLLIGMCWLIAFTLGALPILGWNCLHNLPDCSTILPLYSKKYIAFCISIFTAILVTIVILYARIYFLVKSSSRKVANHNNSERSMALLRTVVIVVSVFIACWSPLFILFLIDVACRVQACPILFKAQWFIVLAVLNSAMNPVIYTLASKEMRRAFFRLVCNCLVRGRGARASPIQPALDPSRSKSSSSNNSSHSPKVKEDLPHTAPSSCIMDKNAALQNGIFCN

Row | Ki (S1P1 [1]; [3]) [M] | EC50 (S1P1 [2]) [nM] | Ki (S1P3; [4]) [M] | Ki (S1P1 [1]; [5]) [M] | Ki (S1P3; [6]) [M] | Compound
1 | 2.2e-09 | 16.8 | 8.02e-07 | – | – | Cc1ccccc1-c1ccc(-c2nc(-c3ccc(CN[C@H](C(=O)O)C(C)C)cc3)no2)cc1C(F)(F)F [Example 55]
2 | 2.47e-09 | 20.5 | 7.57e-06 | – | – | Cc1ccccc1-c1ccc(-c2nc(-c3ccc(CN[C@H](C)C(=O)O)cc3)no2)cc1C(F)(F)F [Example 68]
3 | 1.42e-09 | 10.3 | > 2e-05 | 2.8e-10 | – | Cc1cc(-c2nc(-c3ccc([C@@H](C)N[C@H](C)C(=O)O)cc3)no2)ccc1-c1ccccc1C(F)F [Example 2, N-[(1R)-1-(4-{5-[2′-(difluoromethyl)-2-methylbiphenyl-4-yl]-1,2,4-oxadiazol-3-yl}phenyl)ethyl]-D-alanine, hydrochloride salt]
4 | 1.15e-09 | 3.47 | 2.02e-07 | – | – | Cc1ccccc1-c1ccc(-c2nc(-c3ccc(CNCC(C)C(=O)O)cc3)no2)cc1C(F)(F)F (stereo not drawn) [Example 63]
5 | 1.64e-09 | 17.9 | 5.24e-06 | 3.7e-10 | > 2e-05 | Cc1cc(-c2nc(-c3ccc([C@@H](C)NCC(=O)O)cc3)no2)ccc1-c1ccccc1C(F)F [Example 7, N-[(1R)-1-(4-{5-[2′-(difluoromethyl)-2-methylbiphenyl-4-yl]-1,2,4-oxadiazol-3-yl}phenyl)ethyl]glycine, hydrochloride salt]
6 | 6.83e-09 | 44.4 | > 2e-05 | – | – | Cc1ccccc1-c1ccc(-c2nc(-c3ccc(CNC4(C(=O)O)CCCC4)cc3)no2)cc1C(F)(F)F [Example 59]
7 | 7.95e-09 | 39.7 | 6.69e-06 | – | – | CC[C@H](NCc1ccc(-c2noc(-c3ccc(-c4ccccc4C)c(C(F)(F)F)c3)n2)cc1)C(=O)O [Example 54, (2S)-2-(4-(5-(2′-methyl-2-(trifluoromethyl)biphenyl-4-yl)-1,2,4-oxadiazol-3-yl)benzylamino)butanoic acid]
8 | 1.02e-09 | 7.17 | 1.06e-07 | – | – | Cc1ccccc1-c1ccc(-c2nc(-c3cccc(C(C)NCC(=O)O)c3)no2)cc1C(F)(F)F (stereo not drawn) [Example 42, N-[1-(3-{5-[2′-methyl-2-(trifluoromethyl)biphenyl-4-yl]-1,2,4-oxadiazol-3-yl}phenyl)ethyl]glycine, hydrochloride salt]
9 | 2.55e-09 | 33.6 | 7.93e-07 | – | – | Cc1ccccc1-c1ccc(-c2nc(-c3ccc([C@@H](C)N(C)CC(=O)O)cc3)no2)cc1C(F)(F)F [Example 36, N-methyl-N-[(1R)-1-(4-{5-[2′-methyl-2-(trifluoromethyl)biphenyl-4-yl]-1,2,4-oxadiazol-3-yl}phenyl)ethyl]glycine, hydrochloride salt]
10 | 1.01e-09 | 25.1 | 1.17e-07 | – | – | Cc1ccccc1-c1ccc(-c2nc(-c3cccc(CN[C@H](C)C(=O)O)c3)no2)cc1C(F)(F)F [Example 82]
11 | 3.86e-09 | 27.6 | 9.31e-07 | – | – | Cc1ccccc1-c1ccc(-c2nc(-c3ccc(CNC4(C(=O)O)CCC4)cc3)no2)cc1C(F)(F)F [Example 66]
12 | 1.98e-09 | 89.3 | 5.68e-07 | – | – | COCc1cc(-c2nc(-c3ccc(C(C)N(C)CC(=O)O)cc3)no2)ccc1-c1ccccc1C (stereo not drawn) [Example 15, N-[1-(4-{5-[2-(methoxymethyl)-2′-methylbiphenyl-4-yl]-1,2,4-oxadiazol-3-yl}phenyl)ethyl]-N-methylglycine, hydrochloride salt]
13 | 4.27e-09 | 23.3 | 1.15e-06 | – | – | Cc1ccccc1-c1ccc(-c2nc(-c3ccc(CN[C@H](C(=O)O)[C@@H](C)O)cc3)no2)cc1C(F)(F)F [Example 61]
14 | 4.47e-09 | 26.3 | 6e-06 | – | – | Cc1ccccc1-c1ccc(-c2nc(-c3ccc([C@H](C)N(C)CC(=O)O)cc3)no2)cc1C(F)(F)F [Example 34, N-methyl-N-[(1S)-1-(4-{5-[2′-methyl-2-(trifluoromethyl)biphenyl-4-yl]-1,2,4-oxadiazol-3-yl}phenyl)ethyl]glycine, hydrochloride salt]
15 | 2.32e-09 | 24.1 | 8.4e-07 | 6.3e-10 | 3.15e-06 | COCc1cc(-c2nc(-c3ccc(CN(C)C(C)(C)C(=O)O)c(F)c3)no2)ccc1-c1ccccc1C [Example 43, N-(2-fluoro-4-{5-[2-(methoxymethyl)-2′-methylbiphenyl-4-yl]-1,2,4-oxadiazol-3-yl}benzyl)-N,2-dimethylalanine, hydrochloride salt]
16 | 2.48e-09 | 7.92 | 9.48e-07 | – | – | CCN(Cc1ccc(-c2noc(-c3ccc(-c4ccccc4C)c(C(F)(F)F)c3)n2)cc1)[C@H](C)C(=O)O [Example 90, (R)-2-(Ethyl-{4-[5-(2′-methyl-2-trifluoromethyl-biphenyl-4-yl) [1,2,4]oxadiazol-3-yl]-benzyl}-amino)-propionic acid]
17 | 1.06e-09 | 13.8 | 9.71e-07 | – | – | Cc1ccccc1-c1ccc(-c2nc(-c3ccc(CNC(C)(C)C(=O)O)c(F)c3)no2)cc1C(F)(F)F [Example 49, N-(2-fluoro-4-{5-[2′-methyl-2-(trifluoromethyl)biphenyl-4-yl]-1,2,4-oxadiazol-3-yl}benzyl)-2-methylalanine, hydrochloride salt]
18 | 4.82e-09 | 7.53 | 2.56e-06 | – | – | Cc1ccccc1-c1ccc(-c2nc(-c3ccc(CNC(C)(CO)C(=O)O)cc3)no2)cc1C(F)(F)F (stereo not drawn) [Example 65]
19 | 6.78e-09 | 45.9 | 1.99e-06 | – | – | Cc1ccccc1-c1ccc(-c2nc(-c3ccc(CNC(C(=O)O)C(C)O)cc3)no2)cc1C(F)(F)F (stereo not drawn) [Example 64]
20 | 1.01e-09 | 2.91 | 7.4e-08 | 1.85e-10 | – | Cc1ccccc1-c1ccc(-c2nc(-c3cccc(CCN[C@@H](C)C(=O)O)c3)no2)cc1C(F)(F)F [Example 94, (2S)-2-(3-(5-(2′-methyl-2-(trifluoromethyl)biphenyl-4-yl)-1,2,4-oxadiazol-3-yl)phenethylamino)propanoic acid]
21 | 2.98e-09 | 18.8 | 7.53e-07 | – | – | Cc1ccccc1-c1ccc(-c2nc(-c3ccc(CN(C)[C@@H](C)C(=O)O)cc3)no2)cc1C(F)(F)F [Example 70]
22 | 5.88e-09 | 39.7 | 5.55e-07 | – | – | CC[C@@H](C(=O)O)N(C)Cc1cccc(-c2noc(-c3ccc(-c4ccccc4C)c(C(F)(F)F)c3)n2)c1 [Example 86]
23 | 4.13e-09 | 57.8 | 8.54e-06 | – | – | Cc1ccccc1-c1ccc(-c2nc(-c3ccc(CN(C)C(C)(C)C(=O)O)cc3)no2)cc1C(F)(F)F [Example 56]
24 | 1.44e-09 | 15.1 | 3.4e-06 | – | – | COCc1cc(-c2nc(-c3ccc(C(C)N(C)[C@@H](C)C(=O)O)cc3)no2)ccc1-c1ccccc1C (stereo partly drawn) [Example 37, N-[1-(4-{5-[2-(methoxymethyl)-2′-methylbiphenyl-4-yl]-1,2,4-oxadiazol-3-yl}phenyl)ethyl]-N-methylalanine]
